# According to article PMC6891286, “Towards the Development of an In vivo Chemical Probe for Cyclin G Associated Kinase (GAK)” (Molecules, 2019):
# Where two headings read alike, the source gives them in different places.
# How the values were obtained:
# GAK [1] = target: T1, GAK (Homo sapiens, UniProt O14976); experiment: TR-FRET ligand-binding displacement assay
# T1 sequence (O14976 1-1311): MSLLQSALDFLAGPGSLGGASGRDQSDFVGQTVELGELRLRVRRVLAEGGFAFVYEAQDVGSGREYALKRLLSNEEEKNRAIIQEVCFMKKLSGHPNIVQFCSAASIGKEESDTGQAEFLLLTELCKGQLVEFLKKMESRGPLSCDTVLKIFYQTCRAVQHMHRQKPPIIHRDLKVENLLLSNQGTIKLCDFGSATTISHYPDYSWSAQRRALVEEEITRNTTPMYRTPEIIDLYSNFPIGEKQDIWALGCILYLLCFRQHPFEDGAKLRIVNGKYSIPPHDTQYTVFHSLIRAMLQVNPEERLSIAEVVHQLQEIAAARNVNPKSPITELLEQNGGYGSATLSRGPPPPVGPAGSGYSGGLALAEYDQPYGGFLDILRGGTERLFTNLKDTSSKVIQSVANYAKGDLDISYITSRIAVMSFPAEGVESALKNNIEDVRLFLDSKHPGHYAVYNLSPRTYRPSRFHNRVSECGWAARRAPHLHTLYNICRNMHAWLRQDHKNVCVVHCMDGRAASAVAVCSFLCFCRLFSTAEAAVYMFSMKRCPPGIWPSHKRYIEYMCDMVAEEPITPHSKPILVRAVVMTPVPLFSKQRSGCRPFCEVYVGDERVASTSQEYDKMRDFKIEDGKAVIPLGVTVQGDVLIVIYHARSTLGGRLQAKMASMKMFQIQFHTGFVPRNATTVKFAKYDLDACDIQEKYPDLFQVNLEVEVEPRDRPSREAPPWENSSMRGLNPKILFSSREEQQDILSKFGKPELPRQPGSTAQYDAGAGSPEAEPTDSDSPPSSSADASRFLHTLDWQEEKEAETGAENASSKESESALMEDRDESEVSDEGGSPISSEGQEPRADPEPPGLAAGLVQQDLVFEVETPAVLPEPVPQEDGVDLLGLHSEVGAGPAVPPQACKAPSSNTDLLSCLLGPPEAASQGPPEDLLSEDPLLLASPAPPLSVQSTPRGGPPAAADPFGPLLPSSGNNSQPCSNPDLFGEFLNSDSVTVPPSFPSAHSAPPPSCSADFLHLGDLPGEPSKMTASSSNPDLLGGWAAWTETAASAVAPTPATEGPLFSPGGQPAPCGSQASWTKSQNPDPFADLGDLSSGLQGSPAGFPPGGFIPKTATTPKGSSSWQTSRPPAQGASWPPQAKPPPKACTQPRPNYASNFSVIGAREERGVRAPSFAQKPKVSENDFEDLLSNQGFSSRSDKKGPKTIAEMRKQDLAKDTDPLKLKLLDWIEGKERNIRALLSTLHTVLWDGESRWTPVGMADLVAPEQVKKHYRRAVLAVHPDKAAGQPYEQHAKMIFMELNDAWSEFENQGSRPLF
# GAK [2] = target: T1, GAK; experiment: live cell NanoBRET target engagement assay; assay type: cell-based; conditions: for IC50: nanoBRET, mean average, n = 2; for IC50 values in cells: live cell NanoBRET assay
# [3] = mouse liver microsome metabolic stability; conditions: for T1/2 Ratio: normalization with respect to internal control (propranolol); for CLint scaled / half-life: mouse; for half-life / T1/2: mean average, n = 2
# Description: SGC-GAK-1 (1) was incubated with MLMs in the presence or absence of added NADPH, and the compound was quantified at various time points over an hour.
# The metabolic stability of the 4-anilinoquinolines (8–13) were evaluated in MLMs (Table 1). Half-lives for metabolic clearance were normalized to propranolol in each experimental run to control for variations in the MLM preparations.
# [4] = metabolite identification in mouse liver microsomes
# Description: After centrifugation, the supernatant was subjected to analysis by LCMS, and structures of metabolites were assigned on the basis of their molecular weight and fragmentation pattern.
# Compounds were incubated at a concentration of 10 µM with mouse liver microsomes in the presence of an excess of NADPH.
# 1.1. General Numbering of Metabolites
# The metabolites are numbered according to their retention times in the gradient LC-MS analysis in positive […]
# ion mode. […] The M number increases […]
# consecutively for metabolites with increasing retention time.
# To avoid confusion, labelled retention times of a metabolite peak in different injections are the same, which may lead to mismatch between labelled retention time and actual retention time.
# General Strategy for Metabolite Identification
# The vehicle control and study samples were injected into LC-MS with gradient elution using a Q1 scan method. Searching for potential metabolites was then performed using LightSight software (Applied Biosystems/MDS Sciex) by comparing a total ion current chromatogram of Q1 scan from a study sample with a chromatogram from the corresponding vehicle control sample. The study sample was then injected again to obtain the product ion spectra of potential metabolites using product ion scan methods. The fragmentation patterns of the potential metabolites were then compared to the fragmentation of the parent compound to elucidate the structures of the metabolites.
# The assignment of fragments is shown
# 2.2. Identification of Metabolites in Mouse Liver Microsomal Incubation
# AAK1 = AAK1 (Homo sapiens, UniProt Q2M2I8); experiment: NAK family TR-FRET binding displacement assay; conditions: NAK family FRET screening
# Chain of AAK1 (Q2M2I8 whole entry): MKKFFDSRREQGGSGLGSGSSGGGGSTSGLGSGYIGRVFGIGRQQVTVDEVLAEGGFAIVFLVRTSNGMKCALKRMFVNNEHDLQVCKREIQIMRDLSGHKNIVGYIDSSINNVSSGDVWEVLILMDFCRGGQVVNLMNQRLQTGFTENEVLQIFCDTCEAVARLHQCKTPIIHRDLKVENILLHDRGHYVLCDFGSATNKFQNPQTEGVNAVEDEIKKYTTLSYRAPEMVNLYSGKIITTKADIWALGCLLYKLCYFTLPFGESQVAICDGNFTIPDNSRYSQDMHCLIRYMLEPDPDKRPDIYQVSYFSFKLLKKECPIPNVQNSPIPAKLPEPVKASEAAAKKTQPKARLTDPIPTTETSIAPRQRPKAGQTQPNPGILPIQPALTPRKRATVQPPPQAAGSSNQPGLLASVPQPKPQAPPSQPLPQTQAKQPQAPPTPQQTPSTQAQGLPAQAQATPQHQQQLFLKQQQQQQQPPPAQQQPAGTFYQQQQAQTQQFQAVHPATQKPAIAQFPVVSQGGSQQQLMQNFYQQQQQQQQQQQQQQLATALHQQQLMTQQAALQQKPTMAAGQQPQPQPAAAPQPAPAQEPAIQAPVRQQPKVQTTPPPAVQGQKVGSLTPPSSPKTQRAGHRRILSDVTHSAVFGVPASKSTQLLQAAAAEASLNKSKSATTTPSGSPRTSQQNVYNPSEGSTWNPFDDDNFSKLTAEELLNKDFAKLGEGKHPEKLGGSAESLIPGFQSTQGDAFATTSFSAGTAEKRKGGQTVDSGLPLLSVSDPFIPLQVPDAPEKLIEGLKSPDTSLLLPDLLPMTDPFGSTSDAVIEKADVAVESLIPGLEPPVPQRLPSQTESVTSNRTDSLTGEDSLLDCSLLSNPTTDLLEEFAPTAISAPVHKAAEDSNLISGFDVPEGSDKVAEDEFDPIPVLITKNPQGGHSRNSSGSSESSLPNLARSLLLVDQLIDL
# BMP2K = BMP2K (Homo sapiens, UniProt Q9NSY1); experiment: NAK family TR-FRET binding displacement assay
# Chain of BMP2K (Q9NSY1 whole entry): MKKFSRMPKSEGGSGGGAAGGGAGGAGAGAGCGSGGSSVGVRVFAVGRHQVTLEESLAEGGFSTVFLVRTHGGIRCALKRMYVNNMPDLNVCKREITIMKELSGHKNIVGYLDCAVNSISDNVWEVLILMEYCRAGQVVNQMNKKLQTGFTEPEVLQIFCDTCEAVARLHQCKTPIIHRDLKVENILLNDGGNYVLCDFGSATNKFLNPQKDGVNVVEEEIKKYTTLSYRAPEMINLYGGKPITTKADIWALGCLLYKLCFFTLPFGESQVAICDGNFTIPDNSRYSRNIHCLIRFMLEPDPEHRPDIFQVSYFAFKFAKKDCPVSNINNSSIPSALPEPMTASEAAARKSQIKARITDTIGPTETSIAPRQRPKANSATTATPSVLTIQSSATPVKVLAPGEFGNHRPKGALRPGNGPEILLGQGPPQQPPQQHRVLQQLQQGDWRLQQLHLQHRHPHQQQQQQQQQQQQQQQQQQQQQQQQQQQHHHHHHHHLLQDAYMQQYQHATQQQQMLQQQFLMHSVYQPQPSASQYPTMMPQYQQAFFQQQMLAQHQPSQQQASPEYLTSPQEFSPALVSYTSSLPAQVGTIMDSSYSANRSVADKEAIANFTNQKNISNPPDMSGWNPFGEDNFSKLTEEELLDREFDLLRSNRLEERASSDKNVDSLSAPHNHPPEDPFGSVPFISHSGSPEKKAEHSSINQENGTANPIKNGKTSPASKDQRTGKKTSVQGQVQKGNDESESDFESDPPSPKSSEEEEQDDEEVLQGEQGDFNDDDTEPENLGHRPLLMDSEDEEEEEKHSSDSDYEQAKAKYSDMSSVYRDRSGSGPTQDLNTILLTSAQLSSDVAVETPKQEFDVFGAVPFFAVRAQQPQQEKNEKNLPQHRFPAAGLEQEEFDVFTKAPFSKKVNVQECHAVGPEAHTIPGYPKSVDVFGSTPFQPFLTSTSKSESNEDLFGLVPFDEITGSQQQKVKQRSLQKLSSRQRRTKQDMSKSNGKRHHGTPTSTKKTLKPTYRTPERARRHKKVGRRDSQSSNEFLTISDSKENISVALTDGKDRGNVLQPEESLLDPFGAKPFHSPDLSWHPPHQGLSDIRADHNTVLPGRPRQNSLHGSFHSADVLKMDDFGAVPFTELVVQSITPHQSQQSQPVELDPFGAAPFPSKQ
# STK16 = STK16 (Homo sapiens, UniProt O75716); experiment: NAK family TR-FRET binding displacement assay
# Chain of STK16 (O75716 whole entry): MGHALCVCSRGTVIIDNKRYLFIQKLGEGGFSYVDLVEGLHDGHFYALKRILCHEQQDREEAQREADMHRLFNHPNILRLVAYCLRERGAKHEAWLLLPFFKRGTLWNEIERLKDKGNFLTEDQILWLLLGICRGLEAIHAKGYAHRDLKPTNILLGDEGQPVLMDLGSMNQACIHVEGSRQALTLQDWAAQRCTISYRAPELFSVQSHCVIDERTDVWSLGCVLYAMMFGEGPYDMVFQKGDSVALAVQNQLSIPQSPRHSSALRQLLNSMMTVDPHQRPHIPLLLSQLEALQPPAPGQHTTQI
# Kinetic Solubility = assay type: physicochemical; conditions: PBS pH7.4 (100 µM)
# EGFR = conditions: read-out: EGFR KD; cited from earlier work
# [5] = TR-FRET assay, read-out: Biochemical GAK Ki
# [6] = mouse liver microsomes, T1/2 (min), mouse liver microsomes with NADPH
# [7] = NAK family FRET screening, read-out: Binding displacement assay STK16 Ki
# [8] = pH 7.4, aqueous buffer, kinetic from dmso stock, read-out: Kinetic Solubility µM
# [9] = pH 7.4, aqueous buffer, kinetic from dmso stock, read-out: Kinetic Solubility µg/mL
# [10] = mouse liver microsomes with NADPH
# [11] = NAK family FRET screening, read-out: Binding displacement assay BMP2K Ki
Compound,Ki (GAK [1]; [5]) [µM],IC50 (GAK [2]) [µM],T1/2 Ratio ([3]; mouse liver microsomes),"half-life [3, 6] [min]",Primary Metabolism Site [4],Primary Metabolite Mass [4],Ki (AAK1) [µM],Ki (BMP2K) [µM],Ki (STK16; [7]) [µM],solubility kinetic (Kinetic Solubility; [8]) [µM],solubility kinetic (Kinetic Solubility; [9]) [µg/mL],also measured
"Brc1ccc2nccc(Nc3cccc4c3OCO4)c2c1 [Compound 9, N-(Benzo[d][1,3]dioxol-4-yl)-6-bromoquinolin-4-amine]",0.0019,0.022,1.9,8.9,Aniline,Parent + O,> 100,> 100,> 100,7.3,2.5,"T1/2 Ratio (+) ABT ([3]; mouse liver microsomes, (+) ABT, normalized to propranolol): 0.13; T1/2 Ratio (−) ABT ([3]; mouse liver microsomes, (−) ABT, normalized to propranolol): 0.05; CLint scaled ([3]; mouse liver microsomes, Clint (mL/min/kg) (+) ABT, mouse liver microsomes, (+) ABT): 188 L/h/kg; CLint scaled ([3]; mouse liver microsomes, Clint (mL/min/kg) (−) ABT, (−) ABT): 457 L/h/kg; half-life ([3]; mouse liver microsomes, T1/2 (min) (+) ABT, mouse liver microsomes, (+) ABT): 1.8 min; half-life ([3]; mouse liver microsomes, T1/2 (min) (−) ABT, (−) ABT): 0.74 min"
"Fc1ccc(F)c(Nc2ccnc3ccc(Br)cc23)c1 [Compound 10, 6-Bromo-N-(2,5-difluorophenyl)quinolin-4-amine]",0.015,0.87,0.17,1.7,Aniline,Parent + O,3.8,9.8,6.2,2.2,0.7,–
"Fc1ccc(Nc2ccnc3ccc(Br)cc23)c(F)c1 [Compound 11, 6-Bromo-N-(2,4-difluorophenyl)quinolin-4-amine]",0.035,2.7,0.47,3.2,Aniline,Parent − F + OH,5.7,18,11,39.5,13.2,–
COc1cc(Nc2ccnc3ccc(C(F)(F)F)cc23)cc(OC)c1OC [Compound 13],–,–,–,–,Aniline,Parent + O,54,–,17,–,–,"T1/2 [3, 10]: 6.4 min; Ki (BMP2K; [11]): > 100 µM"
"Brc1ccc2nccc(Nc3cccc4ncsc34)c2c1 [Compound 24, N-(6-Bromoquinolin-4-yl)benzo[d]thiazol-7-amine]",–,0.22,0.68,5.3,–,–,2.6,7.9,–,8.6,3.1,"Ki (GAK [1]; NAK family FRET screening, read-out: Binding displacement assay GAK Ki): 0.0041 µM; IC50 values in cells (GAK [2]): submicromolar; Ki (STK16): 7.8 µM"
"Brc1ccc2nccc(Nc3cccc4scnc34)c2c1 [Compound 25, N-(6-Bromoquinolin-4-yl)benzo[d]thiazol-4-amine]",0.026,> 5,0.32,2.6,–,–,1.2,> 100,> 100,1.1,0.4,–
"Brc1ccc2nccc(Nc3cccc4nsnc34)c2c1 [Compound 29, N-(6-Bromoquinolin-4-yl)benzo[c][1,2,5]thiadiazol-4-amine]",0.0053,0.4,0.20,1.6,–,–,2,4.3,22,1.7,0.6,IC50 values in cells (GAK [2]): submicromolar
"Brc1ccc2nccc(Nc3cccc4[nH]ncc34)c2c1 [Compound 32, 6-Bromo-N-(1H-indazol-4-yl)quinolin-4-amine]",0.014,0.76,0.32,2.5,–,–,4.6,7.4,19,5.1,1.7,IC50 values in cells (GAK [2]): submicromolar
"Brc1ccc2nccc(Nc3ccc4[nH]ncc4c3)c2c1 [Compound 37, 6-Bromo-N-(1H-indazol-5-yl)quinolin-4-amine]",0.047,> 5,0.92,7.5,–,–,0.52,0.66,5.7,12.3,4.2,–
"C#Cc1cccc(Nc2ncnc3cc(OCCOC)c(OCCOC)cc23)c1 [Erlotinib, erlotinib]",–,–,–,–,–,–,–,–,–,–,–,Kd (EGFR): 0.0007 µM
N-(1H-Indazol-4-yl)-6-(trifluoromethyl)quinolin-4-amine [Compound 33],0.72,> 5,0.90,–,–,–,4.6,–,11,–,–,"T1/2 [3, 10]: 5.9 min; Ki (BMP2K; [11]): 16 µM; Kinetic Solubility µg/mL (Kinetic Solubility): 8.2 µg/mL; solubility kinetic (Kinetic Solubility; read-out: Kinetic Solubility µM): 24.2 µM"
